Results published in patent US20230347344A1, “COMBINATION OF PHARMACOLOGICAL AND MICROFLUIDIC FEATURES FOR IMPROVED PLATELETS PRODUCTION” (HEMOSTOD SA, priority 2015, published 2023).

Columns and labels:
[1] = tested on: platelets produced from megakaryocytes; test: Flow cytometry analysis of platelet receptors (CD41, CD42b, CD61, CD49b) on produced platelets; assay type: cell-based, human; settings: for proportion of CD41+/CD42b+ platelet: compound during 2 hours of perfusion, without or with previous introduction during culture stage; for proportion of platelets expressing CD42b receptor: compound in megakaryocyte suspension during 2 h perfusion vs without (10 μM ROCK inhibitor; 25 μM GM6001)
Experimental: (§1) CD34^+ cells were isolated from human umbilical cord blood (UCB) by an immunomagnetic technique (Miltenyi Biotec, Paris, France) as previously reported (see Poirault-Chassac et al, “Notch/Delta4 signaling inhibits human megakaryocytic terminal differentiation”, Blood, vol. 116, no 25, p. 5670-5678, 2010). These blood samples were obtained after informed consent and approval from our Institute Ethics Committee and in accordance with the Declaration of Helsinki. CD34^+ cells were cultured in a humid atmosphere at 37° C. in 5% CO2 in complete medium consisting of Iscove modified Dulbecco medium (IMDM; Gibco Life Technologies, Saint-Aubin, France) supplemented with 15% BIT 9500 serum substitute (Stem Cells Technologies, Grenoble, France), α-monothioglycerol (Sigma-Aldrich, Saint-Quentin Fallavier, France) and liposomes (phosphatidyl-choline, cholesterol and oleic acid; SigmaAldrich). Human recombinant stem cell factor (SCF, 20 ng/mL; Miltenyi Biotec) and thrombopoietin peptide agonist AF13948 (TPO, 50 nM) (see Dunois-Lardé et al, “Exposure of human megakaryocytes to high shear rates accelerates platelet production”, Blood, vol. 114, no 9, p. 1875-1883, 2009) were added once at day 0 to the culture medium followed by addition of 20 nM TPO without SCF at day 5. Mature megakaryocytes are obtained after 12-14 days of culture. Removal of platelets formed during culture and immediately prior to shear exposure was performed by means of a BSA gradient according to the methods reported in (Robert A, Cortin V, Gamier A, Pineault N. Megakaryocyte and platelet production from human cord blood stem cells. Methods Mol Biol. 2012; 788: 219-47). The concentration was then adjusted to 200 000 megakaryocytes/mL. 10 μM ROCK inhibitor (Y27632, Sigma Aldrich, Saint Quentin Fallavier, France) may be added to the culture of megakaryocytes at day 8 of culture. Addition of 10 μM ROCK inhibitor was performed before introducing megakaryocytes suspension into the inlet chamber of the microfluidic device. 6.25 μM nicotinamide (N0636, Sigma Aldrich, Saint Quentin Fallavier, France) was added to the culture of megakaryocytes at day 8 of culture. Addition of 6.25 μM nicotinamide was performed before introducing megakaryocyte suspension into the inlet chamber of the microfluidic device. 20 μM blebbistatin (203390, Calbiochem) was added to the culture of megakaryocytes at day 8 of culture. Addition of 20 μM blebbistatin was performed before introducing megakaryocyte suspension into the inlet chamber of the microfluidic device. 10 μM latrunculin-A (sc202691, Santa Cruz Biotechnology) was added to the culture of megakaryocytes at day 8 of culture. Addition of 10 μM latrunculin-A was performed before introducing megakaryocyte suspension into the inlet chamber of the microfluidic device. 25 μM GM6001 (ab120845, Abcam) was added to the culture of megakaryocytes at day 8 of culture. Addition of 25 μM GM6001 was performed before introducing megakaryocyte suspension into the inlet chamber of the microfluidic device
Platelet production in the microfluidic device of geometry 2 was compared to control samples, consisting of platelet production from twenty-four hours static condition without the microfluidic chip. Expression of CD41 and CD42 antigens was characterized using a flow cytometer BD Fluorescence Accuri C6 ® (BD Biosciences, Le Pont de Claix, France). Platelets were incubated with fluorescein isothiocyanate (FITC)-conjugated anti-human CD41 (αIIb), R-phycoerythrin (PE)-conjugated anti-human CD42b (GPIbα) (both from Beckman Coulter, Villepinte, France) and FITC-conjugated anti-human activated αIIbb3 (BD Biosciences) during 15 minutes at 22° C., Controls were performed using FITC mouse IgG1 (Beckman Coulter), PE mouse IgG1 (Beckman Coulter). Single color flow cytometry analysis of platelet receptors was performed using the GP screen assay (Biocytex, Marseille, France). […]

megakaryocytes [2] = settings: cited from earlier work; for megakaryocyte ploidy / polyploidization: culture conditions, literature
megakaryocytes [3] = test: Megakaryocyte capture and elongation in the microfluidic device (surface density of captured and elongated megakaryocytes); assay type: cell-based, human; settings: for elongation process and beads-on-a-thread structure formation: compound added to megakaryocyte suspension during perfusion (10 μM ROCK inhibitor; 6.25 μM nicotinamide)
Experimental: as §1
All the devices are composed of 16 parallel channels organized in a serpentine shape (FIG. 16). The channels were textured on the straight parts (13.2 cm long) and patterned with the parameters: r=15 μm, H=50 μm, H/h=1.
The microfluidic chip was set on the stage of an inverted microscope (DMI6000 B, Leica Microsystems GmbH, Germany). A computer assisted motorized stage control was used to record positions along the channel length. We recorded observation field positions and alternated recording images between them along the experiment time. Differential interference contrast objective was used to record movies and images between 10× and 40×. A CMOS high-speed camera (Fastcam SA3, Photron, USA) was used to record images at frequencies from 0.5 to 1500 Hz.
Surface captured cells were counted manually from the recorded channel images, and cells in suspension were counted with a hematocytometer.

megakaryocytes [4] = test: Platelet release in the microfluidic device after two hours of perfusion, hemocytometer counting; assay type: cell-based, human; settings: compound in suspension during 2 h perfusion stage, absent during culture stage (10 μM ROCK inhibitor; 6.25 μM nicotinamide)
Experimental: CD34^+ cells were isolated from human umbilical cord blood (UCB) by an immunomagnetic technique (Miltenyi Biotec, Paris, France) as previously reported (see Poirault-Chassac et al, “Notch/Delta4 signaling inhibits human megakaryocytic terminal differentiation”, Blood, vol. 116, no 25, p. 5670-5678, 2010). These blood samples were obtained after informed consent and approval from our Institute Ethics Committee and in accordance with the Declaration of Helsinki. CD34^+ cells were cultured in a humid atmosphere at 37° C. in 5% CO2 in complete medium consisting of Iscove modified Dulbecco medium (IMDM; Gibco Life Technologies, Saint-Aubin, France) supplemented with 15% BIT 9500 serum substitute (Stem Cells Technologies, Grenoble, France), α-monothioglycerol (Sigma-Aldrich, Saint-Quentin Fallavier, France) and liposomes (phosphatidyl-choline, cholesterol and oleic acid; SigmaAldrich). Human recombinant stem cell factor (SCF, 20 ng/mL; Miltenyi Biotec) and thrombopoietin peptide agonist AF13948 (TPO, 50 nM) (see Dunois-Lardé et al, “Exposure of human megakaryocytes to high shear rates accelerates platelet production”, Blood, vol. 114, no 9, p. 1875-1883, 2009) were added once at day 0 to the culture medium followed by addition of 20 nM TPO without SCF at day 5. Mature megakaryocytes are obtained after 12-14 days of culture. […]

[5] = tested on: platelets produced from megakaryocytes; test: Activation of produced platelets by TRAP-6 (PAC1 binding, fibrinogen adhesion, tubulin/actin immunofluorescence); assay type: cell-based, human
Experimental: Image acquisition was performed with an Axio Observer microscope (Zeiss) at 40×1.6-fold magnification with a QIClick-F-CLR-12 Digital CCD Camera (Q Imaging). Platelets are adherent to fibrinogen.
FIG. 8 is a picture showing two colors flow cytometry analysis of platelets receptors with or without activation of the CD41/CD61 receptor by the agonist peptide of the PAR-1 thrombin receptor (TRAP6). (A) Histogram indicates, within the platelet gate, the % of PAC-1/CD42b positive elements before (black bars) or after (gray bars) TRAP-6 activation of platelets produced in the microfluidic device from megakaryocytes suspension in the absence (+/+2 h) or the presence (+/+2 h Ri) of ROCK inhibitor (Ri). […] No Ri was added during the culture stage. n=1.
Platelet production in the microfluidic device of geometry 2 was compared to control samples, consisting of platelet production from twenty-four hours static condition without the microfluidic chip. Expression of CD41 and CD42 antigens was characterized using a flow cytometer BD Fluorescence Accuri C6 ® (BD Biosciences, Le Pont de Claix, France). […] The number of antigenic sites is determined by converting the fluorescence intensity into corresponding numbers of monoclonal antibodies bound per platelet based on a calibrated bead standard curve. […]

[6] = channels coated at 40 μg·mL^−1, t=35 min, ROCK inhibitor in culture (day 8) and perfusion
[7] = 10 μM ROCK inhibitor in suspension during perfusion, absent during culture stage, count after 35 min of perfusion

Row | Molecule | proportion of CD41+/CD42b+ platelet [1] | megakaryocyte ploidy / polyploidization (megakaryocytes [2]) | elongation process and beads-on-a-thread structure formation (megakaryocytes [3]) | platelet release vs suspension without compound (megakaryocytes [4]) | proportion of platelets expressing CD42b receptor [1] | further results
1 | C/C1=C/C(=O)O[C@@H]2C[C@@H](CC[C@H](C)/C=C\C=C\CC1)O[C@@](O)([C@@H]1CSC(=O)N1)C2 [latrunculin, Latrunculin A] | higher | increase |  |  |  | megakaryocyte apoptosis activation (megakaryocytes [2]; literature (Avanzi et al)): increase
2 | Cc1ccc2c(c1)C(=O)C1(O)CCN(c3ccccc3)C1=N2 (centres unmarked) [blebbistatin, 1-Phenyl-1,2,3,4-tetrahydro-4-hydroxpyrrolo[2,3-b]-7-methylquinolin-4-one] | higher |  |  |  |  | 
3 | VWF: Human von Willebrand factor, used as surface coating of the platelet production channel |  |  |  |  |  | captured megakaryocytes density, VWF coating vs BSA coating (megakaryocytes [3]; [6]): 5.86±1 fold; elongated megakaryocytes density, VWF coating vs BSA coating (megakaryocytes [3]; [6]): 7.72±1.32 fold
4 | O=S(=O)(c1cccc2c(O)nccc12)N1CCCNCC1 [ROCK inhibitor, 1-(1-Hydroxy-5-isoquinolinesulfonyl)homopiperazine] |  |  | No differences | significant higher platelet release | higher | captured megakaryocytes density, ROCK inhibitor added vs not added (megakaryocytes [3]; [7]): 1.42±0.13 fold; elongated megakaryocytes density, ROCK inhibitor added vs not added (megakaryocytes [3]; [7]): 2.98±0.28 fold; characteristics of produced platelets (CD61, CD42b, CD49b receptor density) vs platelets isolated from blood ([1]; ROCK inhibitor during 2 h perfusion, FIG. 6): comparable to those of natural platelets; tubulin conformation of produced platelets upon TRAP-6 stimulation ([5]; ROCK inhibitor during 2 h perfusion, platelets adherent to fibrinogen, FIG. 7): tubulin conformation typical of a transient activation; conformation of the αIIbβ3 receptors (PAC1 binding) upon TRAP-6 stimulation ([5]; platelets from suspension with ROCK inhibitor, FIGS. 8 and 9): activated conformation
5 | NC(=O)c1cccnc1 [nicotinamide, pyridine-3-carboxamide] | higher | increases | No differences | higher platelet release |  | 
6 | CNC(=O)[C@H](Cc1c[nH]c2ccccc12)NC(=O)[C@@H](CC(=O)NO)CC(C)C [GM6001, N-[(2R)-2-(hydroxamidocarbonylmethyl)-4-methylpentanoyl]-L-tryptophan methylamide] |  |  |  |  | higher | proportion of platelet CD42b+ ([1]; GM6001 during the culture as well as during the 2 hours perfusion stage): increased
